According to the NIST ThermoML archive (doi:10.1021/acs.jced.9b00078):
± gives the expanded uncertainty stated by the source.

Assay: xn = mol fraction of the nth substance listed
Conditions: Liquid, Other PVT measurement

CCCCCCCCCCCCCCCC [hexadecane] + O=C=O
mass density [kg/m3]
Conditions	303.2 K	313.2 K	333.2 K	353.2 K	373.2 K	393.2 K	413.2 K	433.2 K	453.2 K	473.2 K
10000 kPa, x2 = 0.2555	780.45 ± 7.2	773.23 ± 7.2	758.92 ± 7.2	744.43 ± 7.2	729.96 ± 7.2	715.39 ± 7.2	700.19 ± 7.2	685.46 ± 7.2	670.23 ± 7.2	654.67 ± 7.2
10000 kPa, x2 = 0.3703	–	778.18 ± 7.2	759.26 ± 7.2	746.79 ± 7.2	731.25 ± 7.2	715.75 ± 7.2	698.68 ± 7.2	681.51 ± 7.2	664.54 ± 7.2	647.28 ± 7.2
20000 kPa, x2 = 0.2555	787.34 ± 7.2	780.1 ± 7.2	766.68 ± 7.2	753 ± 7.2	739.28 ± 7.2	725.96 ± 7.2	712.05 ± 7.2	698.1 ± 7.2	684 ± 7.2	670.22 ± 7.2
20000 kPa, x2 = 0.3703	793.48 ± 7.2	785.88 ± 7.2	771.19 ± 7.2	756.53 ± 7.2	742.07 ± 7.2	727.42 ± 7.2	712.39 ± 7.2	697.06 ± 7.2	681.26 ± 7.2	665.86 ± 7.2
30000 kPa, x2 = 0.2555	794.56 ± 7.2	787.59 ± 7.2	774.7 ± 7.2	761.96 ± 7.2	749.11 ± 7.2	736.15 ± 7.2	723.64 ± 7.2	710.65 ± 7.2	697.79 ± 7.2	684.48 ± 7.2
30000 kPa, x2 = 0.3703	801.32 ± 7.2	793.73 ± 7.2	780.08 ± 7.2	766.24 ± 7.2	752.26 ± 7.2	738.82 ± 7.2	725.13 ± 7.2	711.36 ± 7.2	697.06 ± 7.2	683.13 ± 7.2
30000 kPa, x2 = 0.7348	839.16 ± 7.2	828.9 ± 7.2	807.53 ± 7.2	785.71 ± 7.2	763.15 ± 7.2	741.75 ± 7.2	718.23 ± 7.2	696.05 ± 7.2	671.94 ± 7.2	647.71 ± 7.2
30000 kPa, x2 = 0.8645	872.71 ± 7.2	857.83 ± 7.2	827.32 ± 7.2	793.96 ± 7.2	758.29 ± 7.2	725.26 ± 7.2	688.46 ± 7.2	649.67 ± 7.2	613.21 ± 7.2	578.59 ± 7.3
40000 kPa, x2 = 0.2555	800.47 ± 7.2	793.9 ± 7.2	781.61 ± 7.2	769.42 ± 7.2	757.25 ± 7.2	745.02 ± 7.2	732.84 ± 7.2	721.13 ± 7.2	708.66 ± 7.2	696.75 ± 7.2
40000 kPa, x2 = 0.3703	807.74 ± 7.2	800.81 ± 7.2	787.53 ± 7.2	774.17 ± 7.2	761.32 ± 7.2	748.53 ± 7.2	735.68 ± 7.2	723.06 ± 7.2	709.8 ± 7.2	697.04 ± 7.2
40000 kPa, x2 = 0.7348	848.5 ± 7.2	839.65 ± 7.2	821.38 ± 7.2	800.32 ± 7.2	779.76 ± 7.2	758.8 ± 7.2	738 ± 7	717.02 ± 7.2	695.98 ± 7.2	675.69 ± 7.2
40000 kPa, x2 = 0.8645	885.49 ± 7.2	870.69 ± 7.2	840.65 ± 7.2	812.52 ± 7.2	785.33 ± 7.2	757.98 ± 7.2	729.63 ± 7.2	702.92 ± 7.2	673.61 ± 7.2	644.14 ± 7.2
50000 kPa, x2 = 0.2555	807.2 ± 7.2	800.32 ± 7.2	788.15 ± 7.2	776.26 ± 7.2	764.83 ± 7.2	753.11 ± 7.2	741.57 ± 7.2	730.38 ± 7.2	718.53 ± 7.2	707.53 ± 7.2
50000 kPa, x2 = 0.3703	814.58 ± 7.2	807.06 ± 7.2	794.36 ± 7.2	782.12 ± 7.2	769.45 ± 7.2	756.96 ± 7.2	744.66 ± 7.2	732.8 ± 7.1	720.85 ± 7.2	708.83 ± 7.2
50000 kPa, x2 = 0.7348	860.91 ± 7.2	850.12 ± 7.2	831.42 ± 7.2	812.92 ± 7.2	793.19 ± 7.2	773.38 ± 7.2	755.78 ± 7.2	736.34 ± 7.2	717.38 ± 7.2	698.15 ± 7.2
50000 kPa, x2 = 0.8645	900.22 ± 7.2	885.44 ± 7.2	859.09 ± 7.2	833.73 ± 7.2	810.58 ± 7.2	783.06 ± 7.2	759.09 ± 7.2	735.07 ± 7.2	709.83 ± 7.2	685.57 ± 7.2
